6 compounds from patent EP4603105A1, “PHARMACEUTICAL COMPOSITION CONTAINING CYCLIC COMPOUND HAVING SELECTIVE KRAS INHIBITORY EFFECT AGAINST HRAS AND NRAS” (CHUGAI SEIYAKU KABUSHIKI KAISHA, priority 2022, dated 2024) can be followed below.

Experiment [1] deals with GDP-bound KRAS wild-type protein (Homo sapiens, UniProt P01116). In words: Binding to KRAS by surface plasmon resonance (SPR), dissociation constant KD. Put shortly: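 Captured GDP-RAS (~100–300 RU) was exposed to increasing compound concentrations, 75 s per step, in running buffer with 10 µM GDP, 10 mM MgCl2 and 4% DMSO at pH 7.4.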
Experiment [2] concerns the target GDP-bound NRAS wild-type protein (Homo sapiens, UniProt P01111). Nature of the experiment: Binding to NRAS by surface plasmon resonance (SPR), KD and KD ratio to KRAS. Particulars: ratio of KD for GDP-bound NRAS wild-type protein to KD for KRAS. The gist of the method:
(§1)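 GDP-bound biotin-Avi RAS captured at ~100–300 RU, 30°C, pH 7.4 HBS containing 10 µM GDP, 10 mM MgCl2, 1 mM DTT, 0.01% Tween 20 and 4% DMSO. KD by 1:1 fitting.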
(SPR reads the build-up and loss of mass on a sensor chip optically.)

The target of another experiment is HRAS wild-type protein (Homo sapiens, UniProt P01112). In words: Binding to HRAS by surface plasmon resonance (SPR), KD and KD ratio to KRAS. Particulars: ratio of KD for HRAS wild-type protein to KD for KRAS. Put shortly: as §1
Experiment [3] relates to human lung cancer strain NCI-H441. It is filed as cell-based. The gist of the method: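 Readout: […] after the ATP-based reagent. Compound: serial dilutions in dimethyl sulfoxide.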
In experiment [4] the test system is human gastric cancer strain SNU-1. In kind it is cell-based. Put shortly: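 SNU-1 gastric cancer cells, 250 cells/well in RPMI-1640 with 10% FBS, glucose, HEPES and sodium pyruvate, plated onto serially diluted compound in DMSO.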
Experiment [5] has as its system human pancreatic cancer strain KP4. It is filed as cell-based. The gist of the method:
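KP4 pancreatic cancer cells seeded at 500 cells/well in DMEM/Ham's F-12 with 10% FBS onto serially diluted compound. Viability read by CellTiter-Glo luminescence.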

For experiment [6], the system named is human colorectal cancer strain GP2d. In kind it is cell-based. The gist of the method:
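Cells seeded at 500 cells/well in DMEM with 10% FBS onto serially diluted compound in DMSO, then cultured 7 days at 37°C, 5% CO2. Viability read by CellTiter-Glo luminescence.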

Experiment [7] deals with human gastric cancer strain GSU. It is filed as cell-based. Put shortly:
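Cells seeded at 200 per well in RPMI-1640 with 10% FBS onto serially diluted compound (DMSO) in U-bottom plates. Viability read by CellTiter-Glo luminescence.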

Experiment [8] deals with human ovarian cancer strain OV7. In kind it is cell-based. Put shortly:
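OV7 cells, 250 per well, in DMEM/Ham's F-12 with 5% FBS, 0.5 µg/mL hydrocortisone and 10 µg/mL insulin, grown 7 days at 37°C with serially diluted compound. Viability by CellTiter-Glo luminescence.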

For experiment [9], the system named is human bladder cancer strain UM-UC-3. In kind it is cell-based. Put shortly:
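UM-UC-3 human bladder cancer cells were seeded at 250 cells/well onto serially diluted compound in MEM with 10% FBS. Viability was read as CellTiter-Glo luminescence.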

HRAS wild-type protein, sequence (P01112 whole entry): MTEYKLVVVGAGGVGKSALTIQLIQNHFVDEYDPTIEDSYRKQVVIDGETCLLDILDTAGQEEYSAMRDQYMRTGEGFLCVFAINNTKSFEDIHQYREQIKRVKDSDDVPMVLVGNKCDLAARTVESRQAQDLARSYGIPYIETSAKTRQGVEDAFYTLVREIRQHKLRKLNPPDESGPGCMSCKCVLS
GDP-bound NRAS wild-type protein, sequence (P01111 whole entry): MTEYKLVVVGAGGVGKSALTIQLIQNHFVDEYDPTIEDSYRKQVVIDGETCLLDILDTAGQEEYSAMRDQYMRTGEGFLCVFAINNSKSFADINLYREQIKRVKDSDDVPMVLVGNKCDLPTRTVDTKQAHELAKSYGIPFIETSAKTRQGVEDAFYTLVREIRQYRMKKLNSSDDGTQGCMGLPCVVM
GDP-bound KRAS wild-type protein, sequence (P01116 1-188 isoform P01116-2): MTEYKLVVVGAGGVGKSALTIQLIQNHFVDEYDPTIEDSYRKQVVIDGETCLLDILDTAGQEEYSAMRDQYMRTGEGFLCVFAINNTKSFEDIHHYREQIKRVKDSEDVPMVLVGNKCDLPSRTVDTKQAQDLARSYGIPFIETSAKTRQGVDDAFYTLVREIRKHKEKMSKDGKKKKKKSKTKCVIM

For the compound `CCO[C@@H]1C[C@H]2C(=O)NC3(CCCC3)C(=O)N(C)[C@@H](C3CCCC3)C(=O)N(C)[C@H](C(=O)N(C)C)CC(=O)N(C)[C@@H]([C@@H](C)OC)C(=O)N[C@@H]([C@@H](C)CC)C(=O)N(C)CC(=O)N(C)[C@H]3C/C=C\CCN(C3=O)[C@@H](Cc3ccc(C)cc3)C(=O)N(C)CC(=O)N[C@@H](CCc3cc(F)c(C(F)(F)F)c(F)c3)C(=O)N2C1` [PP3481, (2S,8S,12R,14S,20S,23S,27S,30S,36S,38Z)-20-cyclopentyl-8-[2-[3,5-difluoro-4-(trifluoromethyl)phenyl]ethyl]-12-ethoxy-27-[(1R)-1-methoxyethyl]-N,N,4,19,22,26,32,35-octamethyl-30-[(1S)-1-methylpropyl]-3,6,9,15,18,21,25,28,31,34,42-undecaoxo-2-(p-tolylmethyl)spiro[1,4,7,10,16,19,22,26,29,32,35-undecazatricyclo[34.5.1.0^10,14]dotetracont-38-ene-17,1'-cyclopentane]-23-carboxamide], the affinity in experiment [1] (Single Cycle Kinetics), expressed as Kd, was 0.12 nM. The “NRAS /KRAS” value in experiment [2] was “A (a compound having 10 or more and less than 20 is denoted as A)”. In addition, the “HRAS /KRAS” value at HRAS wild-type protein was “A (a compound having 10 or more and less than 20 is denoted as A)”. Besides, the IC50 (in general, the concentration that inhibits the measured activity by half) in experiment [3] was found to be 13.6 nM; in experiment [4], 8.2 nM; in experiment [5], 25.5 nM; in experiment [6], 9.1 nM; in experiment [7], 2.1 nM; in experiment [8], 24.8 nM. The same compound came in with an IC50 in experiment [9] of 8.7 nM.

Take `CCO[C@@H]1C[C@H]2C(=O)NC3(CCCC3)C(=O)N(C)[C@@H](C3CCCC3)C(=O)N(C)[C@H](C(=O)N(C)C)CC(=O)N(C)[C@@H]([C@@H](C)OC)C(=O)N[C@@H]([C@@H](C)CC)C(=O)N(C)CC(=O)N(C)[C@H]3C/C=C\CCN(C3=O)[C@@H](Cc3ccc(C(F)(F)F)cc3)C(=O)N(C)CC(=O)N[C@@H](CCc3cc(F)c(C(F)(F)F)c(F)c3)C(=O)N2C1` [PP3475, (2S,8S,12R,14S,20S,23S,27S,30S,36S,38Z)-20-cyclopentyl-8-[2-[3,5-difluoro-4-(trifluoromethyl)phenyl]ethyl]-12-ethoxy-27-[(1R)-1-methoxyethyl]-N,N,4,19,22,26,32,35-octamethyl-30-[(1S)-1-methylpropyl]-3,6,9,15,18,21,25,28,31,34,42-undecaoxo-2-[[4-(trifluoromethyl)phenyl]methyl]spiro[1,4,7,10,16,19,22,26,29,32,35-undecazatricyclo[34.5.1.0^10,14]dotetracont-38-ene-17,1'-cyclopentane]-23-carboxamide]: in experiment [1] (Single Cycle Kinetics), binding was put at a Kd of 0.076 nM. Further, in experiment [2], the “NRAS /KRAS” value is “A (a compound having 10 or more and less than 20 is denoted as A)”. Moreover, the “HRAS /KRAS” value on HRAS wild-type protein was “A (a compound having 10 or more and less than 20 is denoted as A)”. Also, the IC50 in experiment [3] is 7.2 nM; in experiment [4], 2.5 nM; in [5] it was 13.1 nM; in [6], 3.5 nM; in [7], 0.8 nM; in experiment [8], 13.2 nM. The concentration for half-maximal inhibition (IC50) in experiment [9] was determined as 3.9 nM.

Take `CCC[C@H]1C(=O)N[C@@H]([C@@H](C)CC)C(=O)N(C)CC(=O)N(C)[C@H]2C/C=C\CCN(C2=O)[C@@H](Cc2ccc(C)cc2)C(=O)N(C)CC(=O)N[C@@H](CCc2ccc(C(F)(F)F)c(OC)c2)C(=O)N2C[C@H](OCC)C[C@H]2C(=O)OC2(CCC2)C(=O)N(C)[C@@H](C2CCCC2)C(=O)N(C)[C@H](C(=O)N(C)C)CC(=O)N1C` [PP3388, (2S,8S,12R,14S,20S,23S,27S,30S,36S,38Z)-20-cyclopentyl-12-ethoxy-8-[2-[3-methoxy-4-(trifluoromethyl)phenyl]ethyl]-N,N,4,19,22,26,32,35-octamethyl-30-[(1S)-1-methylpropyl]-3,6,9,15,18,21,25,28,31,34,42-undecaoxo-27-propyl-2-(p-tolylmethyl)spiro[16-oxa-1,4,7,10,19,22,26,29,32,35-decazatricyclo[34.5.1.0^10,14]dotetracont-38-ene-17,1'-cyclobutane]-23-carboxamide]: the Kd – broadly, the free concentration of one partner at which half of the binding sites on the other are occupied at equilibrium, for simple one-to-one binding – in experiment [1] (Single Cycle Kinetics) came to 0.16 nM. Moreover, in experiment [2], the “NRAS /KRAS” value is “A (a compound having 10 or more and less than 20 is denoted as A)”. Moreover, on HRAS wild-type protein, the “HRAS /KRAS” value is “B (a compound having 3 or more and less than 10 is denoted as B)”. The IC50 in [3] was found to be 1.2 nM; in experiment [4], 7.4 nM; in experiment [5], 10.5 nM; in [6], 4.6 nM; in experiment [7], 1.2 nM; in experiment [8], 6.7 nM. Moreover, the IC50 in experiment [9] was 4.9 nM.

In [1] (Single Cycle Kinetics), `C#CC[C@H]1C(=O)N[C@@H]([C@@H](C)CC)C(=O)N(C)CC(=O)N(C)[C@H]2C/C=C\CCN(C2=O)[C@@H](Cc2ccc(C(F)(F)F)cc2)C(=O)N(C)CC(=O)N[C@@H](CCc2ccc(C(F)(F)F)c(Cl)c2)C(=O)N2C[C@H](OCC)C[C@H]2C(=O)N(C)C2(CCC2)C(=O)N(C)[C@@H](C2CCCC2)C(=O)N(C)[C@H](C(=O)N(C)C)CC(=O)N1C` [PP3234, (2S,8S,12R,14S,20S,23S,27S,30S,36S,38Z)-8-[2-[3-chloro-4-(trifluoromethyl)phenyl]ethyl]-20-cyclopentyl-12-ethoxy-N,N,4,16,19,22,26,32,35-nonamethyl-30-[(1S)-1-methylpropyl]-3,6,9,15,18,21,25,28,31,34,42-undecaoxo-27-prop-2-ynyl-2-[[4-(trifluoromethyl)phenyl]methyl]spiro[1,4,7,10,16,19,22,26,29,32,35-undecazatricyclo[34.5.1.0^10,14]dotetracont-38-ene-17,1'-cyclobutane]-23-carboxamide] showed a Kd of 0.026 nM. The “NRAS /KRAS” value in experiment [2] is “A (a compound having 10 or more and less than 20 is denoted as A)”. The “HRAS /KRAS” value at HRAS wild-type protein was “B (a compound having 3 or more and less than 10 is denoted as B)”. In addition, the IC50 in experiment [3] amounted to 1.6 nM; in [4] it was 2 nM; in [5], 3.2 nM; in experiment [6], 1.1 nM; in experiment [7], 0.4 nM; in [8], 2.2 nM. In experiment [9], this compound returned an IC50 of 0.7 nM.

In experiment [1] (1:1 binding model), `CCC[C@H]1C(=O)N[C@@H]([C@@H](C)CC)C(=O)N(C2CC2)CC(=O)N(C)[C@H]2C/C=C\CCN(C2=O)[C@@H](Cc2ccc(C(F)(F)F)cc2)C(=O)N(C)CC(=O)N[C@@H](CCc2cc(F)c(C(F)(F)F)c(F)c2)C(=O)N2C[C@H](OCC)C[C@H]2C(=O)NC2(CC(C)(C)C2)C(=O)N(C)[C@@H](CC(C)(C)C)C(=O)N(C)[C@H](C(=O)N(C)C)CC(=O)N1C` [PP2742] displayed a Kd of 0.26 nM. Besides, in [2], the “NRAS /KRAS” value is reported as “AA (a compound having 20 or more is denoted as AA)”. At HRAS wild-type protein, the “HRAS /KRAS” value was “A (a compound having 10 or more and less than 20 is denoted as A)”. Besides, the IC50 in experiment [3] is 14.9 nM; in experiment [4], 26.7 nM; in experiment [5], 28.7 nM; in experiment [6] it was 12 nM; in [7], 3.2 nM; in experiment [8], 20.4 nM. Moreover, in experiment [9], the midpoint of inhibition, the IC50, lay at 15.4 nM.

`CCC[C@H]1C(=O)N[C@@H]([C@@H](C)CC)C(=O)N(C)CC(=O)N(C)[C@H]2C/C=C\CCN(C2=O)[C@@H](Cc2ccc(C)cc2)C(=O)N(C)CC(=O)N[C@@H](CCc2cc(F)c(C(F)(F)F)c(F)c2)C(=O)N2CC3(CC3)C[C@H]2C(=O)N(C)C2(CCC2)C(=O)N(C)[C@@H](C2CCCC2)C(=O)N(C)[C@H](C(=O)N(C)C)CC(=O)N1C` [PP3327]: the affinity in experiment [1] (Single Cycle Kinetics), expressed as Kd, was 0.019 nM. In experiment [2], the “NRAS /KRAS” value was “A (a compound having 10 or more and less than 20 is denoted as A)”. For the same compound, the “HRAS /KRAS” value at HRAS wild-type protein is “A (a compound having 10 or more and less than 20 is denoted as A)”. Also, the IC50 was 4.4 nM in experiment [3]; 2.4 nM in [4]; 4 nM in [5]; 0.7 nM in experiment [6]; 0.5 nM in experiment [7]; 1.6 nM in experiment [8]. In addition, it took 0.6 nM to reach half-maximal inhibition in experiment [9] (IC50).
